What was measured:
[1] = tested on: MT-3/ADR resistant breast carcinoma; test: Cytotoxicity, MTT assay, adriablastin resistant cell line MT-3/ADR; type: cell-based; settings: concentration range tested up to 100 μM
Protocol: The cells were seeded in 96-well plates with 5×10^3 cells per well, in RPMI 1640 medium with 2 mM glutamine and 10% FBS. The cells were incubated for 24 hours. The test compounds were dissolved in DMSO and further diluted in medium just prior to use. 6 wells were used per test concentration. The cells were incubated with test compound for 24 hours. 20 μl of freshly prepared MTT solution was added to each well and incubated for 4 hours.

[2] = tested on: Hela mutant cervix carcinoma cells; test: Cytotoxic activity with or without nucleoside transport inhibitor dipyridamole, MTT assay; type: cell-based; settings: dipyridamole 10 μM
Protocol: Dipyridamole was used as an inhibitor of the equilibrative nucleoside transporters hENT1 and hENT2. The cells were seeded in 96-well plates with 5×10^3 cells per well, in RPMI 1640 medium with 2 mM glutamine and 10% FBS. The cells were pre-incubated for 24 hours. Dipyridamole (10 μM) was added to the cells 30 minutes prior to the addition of the test compounds. The test compounds were dissolved in DMSO and further diluted in medium just prior to use. 6 wells were used per test concentration. The cells were incubated with test compound for 72 hours. 20 μl of freshly prepared MTT solution was added to each well and incubated for 4 hours.

## Nc1ncn([C@@H]2O[C@H](CO)[C@@H](O)[C@H]2O)c(=O)n1 [Aza-C, 5-azacytidine]
[1]
  activity in the MT-3/ADR resistant cell line: No activity was observed
[2]
  reduction of activity by addition of dipyridamole: 3 fold

From US8399420B2, “Azacytidine analogues and uses thereof” (Mount Sanai School of Medicine, priority 2007, dated 2013)
